Experimental data reported in ChEMBL document CHEMBL1145308 (Bioorg Med Chem Lett, 2006).

Experiments:
[1] = Dissociation constant, pKa of the compound; type: physicochemical
[2] = target: T1, Sodium- and chloride-dependent glycine transporter 1 (Homo sapiens, UniProt P48067); experiment: (§1) Inhibition of [3H]glycine uptake at GlyT1
T1 sequence (P48067 whole entry): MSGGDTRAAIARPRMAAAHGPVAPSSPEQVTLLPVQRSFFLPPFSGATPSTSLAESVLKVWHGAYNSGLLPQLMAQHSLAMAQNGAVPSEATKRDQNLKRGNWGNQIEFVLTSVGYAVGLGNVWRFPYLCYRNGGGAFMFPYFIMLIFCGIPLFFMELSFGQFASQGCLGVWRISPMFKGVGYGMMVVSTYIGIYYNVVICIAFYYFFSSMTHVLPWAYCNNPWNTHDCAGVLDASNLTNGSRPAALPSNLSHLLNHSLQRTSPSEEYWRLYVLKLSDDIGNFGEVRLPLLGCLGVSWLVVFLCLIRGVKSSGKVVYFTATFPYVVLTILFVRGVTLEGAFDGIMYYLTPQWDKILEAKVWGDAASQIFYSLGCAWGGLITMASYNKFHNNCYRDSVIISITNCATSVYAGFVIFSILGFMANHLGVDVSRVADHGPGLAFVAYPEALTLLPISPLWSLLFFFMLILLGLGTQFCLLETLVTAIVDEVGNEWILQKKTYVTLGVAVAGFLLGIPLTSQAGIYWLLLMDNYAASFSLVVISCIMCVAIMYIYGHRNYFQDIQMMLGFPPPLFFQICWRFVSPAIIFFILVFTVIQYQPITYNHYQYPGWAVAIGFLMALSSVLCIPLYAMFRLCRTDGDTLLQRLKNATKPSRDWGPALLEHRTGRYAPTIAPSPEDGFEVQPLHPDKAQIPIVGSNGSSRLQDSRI

[3] = target: Voltage-gated inwardly rectifying potassium channel KCNH2 (Homo sapiens, UniProt Q12809)
Sequence of Voltage-gated inwardly rectifying potassium channel KCNH2 (Q12809 whole entry): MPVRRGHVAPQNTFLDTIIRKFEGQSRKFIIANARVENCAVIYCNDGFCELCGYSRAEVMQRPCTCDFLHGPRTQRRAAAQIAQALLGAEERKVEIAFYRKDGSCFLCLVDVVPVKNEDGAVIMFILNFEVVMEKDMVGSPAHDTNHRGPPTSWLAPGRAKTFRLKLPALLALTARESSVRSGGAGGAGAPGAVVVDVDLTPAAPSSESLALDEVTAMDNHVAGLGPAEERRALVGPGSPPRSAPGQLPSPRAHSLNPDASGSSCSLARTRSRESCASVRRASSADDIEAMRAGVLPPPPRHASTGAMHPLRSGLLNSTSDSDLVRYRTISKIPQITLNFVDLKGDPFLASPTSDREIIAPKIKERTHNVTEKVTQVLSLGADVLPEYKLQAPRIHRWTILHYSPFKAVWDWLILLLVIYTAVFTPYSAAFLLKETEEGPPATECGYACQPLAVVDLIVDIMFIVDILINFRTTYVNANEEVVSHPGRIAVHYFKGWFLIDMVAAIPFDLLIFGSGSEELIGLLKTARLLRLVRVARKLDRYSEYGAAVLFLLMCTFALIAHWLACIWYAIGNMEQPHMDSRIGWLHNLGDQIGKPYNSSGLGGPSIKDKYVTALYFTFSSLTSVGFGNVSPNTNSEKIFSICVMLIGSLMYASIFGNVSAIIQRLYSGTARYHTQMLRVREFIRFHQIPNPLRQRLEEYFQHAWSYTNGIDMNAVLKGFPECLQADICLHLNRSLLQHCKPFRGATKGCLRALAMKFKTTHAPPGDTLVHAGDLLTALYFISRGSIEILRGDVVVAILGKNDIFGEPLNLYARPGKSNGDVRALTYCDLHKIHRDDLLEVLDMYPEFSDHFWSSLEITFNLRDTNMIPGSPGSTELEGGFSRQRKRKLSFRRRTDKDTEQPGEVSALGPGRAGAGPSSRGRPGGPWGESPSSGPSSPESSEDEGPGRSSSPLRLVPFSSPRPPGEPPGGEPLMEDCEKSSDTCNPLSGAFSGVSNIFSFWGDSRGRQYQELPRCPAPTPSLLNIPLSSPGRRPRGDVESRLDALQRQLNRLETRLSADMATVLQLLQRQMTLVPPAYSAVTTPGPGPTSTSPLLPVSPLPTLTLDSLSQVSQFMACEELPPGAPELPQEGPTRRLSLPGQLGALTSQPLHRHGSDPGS
Description: Inhibition of hERG potassium channel expressed in CHO cells by whole cell patch clamp method

in vitro [4] = settings: human, microsomes, Max Achievable Bioavailability
Description: Maximum achievable bioavailability in human microsome

in vitro [5] = settings: mouse, microsomes, CL
Description: Intrinsic clearance in mouse microsome

in vitro [6] = settings: mouse, microsomes, Max Achievable Bioavailability
Description: Maximum achievable bioavailability in mouse microsome

[7] = target: T2, Sodium- and chloride-dependent glycine transporter 2 (Homo sapiens, UniProt Q9Y345); experiment: (§2) Inhibition of [3H]glycine uptake at GlyT2
T2 sequence (Q9Y345 whole entry): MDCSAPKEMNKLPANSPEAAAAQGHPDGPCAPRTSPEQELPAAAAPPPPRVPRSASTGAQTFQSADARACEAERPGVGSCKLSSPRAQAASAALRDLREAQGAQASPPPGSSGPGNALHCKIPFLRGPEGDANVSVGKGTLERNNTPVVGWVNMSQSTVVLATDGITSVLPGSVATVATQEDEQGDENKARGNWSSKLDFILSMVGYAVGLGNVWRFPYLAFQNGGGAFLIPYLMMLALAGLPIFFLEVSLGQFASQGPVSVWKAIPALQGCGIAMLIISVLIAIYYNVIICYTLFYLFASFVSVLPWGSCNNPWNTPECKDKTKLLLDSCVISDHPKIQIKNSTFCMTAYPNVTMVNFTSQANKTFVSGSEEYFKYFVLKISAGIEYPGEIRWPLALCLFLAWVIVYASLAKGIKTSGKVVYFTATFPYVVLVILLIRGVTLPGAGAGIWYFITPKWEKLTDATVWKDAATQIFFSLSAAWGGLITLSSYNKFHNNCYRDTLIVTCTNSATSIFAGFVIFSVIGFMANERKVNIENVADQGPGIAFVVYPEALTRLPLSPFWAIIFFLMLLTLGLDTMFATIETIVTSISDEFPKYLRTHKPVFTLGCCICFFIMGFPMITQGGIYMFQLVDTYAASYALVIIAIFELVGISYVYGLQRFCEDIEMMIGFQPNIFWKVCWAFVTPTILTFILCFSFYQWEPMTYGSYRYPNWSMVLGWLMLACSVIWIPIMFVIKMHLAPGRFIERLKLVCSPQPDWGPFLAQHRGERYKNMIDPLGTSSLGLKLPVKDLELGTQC

in vitro [8] = settings: human, microsomes, CL
Description: Intrinsic clearance in human microsome

[9] = Oral bioavailability in mouse; type: ADME, organism-based; settings: in vivo
[10] = Clearance in mouse; type: ADME, organism-based; settings: in vivo
[11] = Ratio of drug level in brain against plasma in mouse; type: ADME, organism-based; settings: read-out: BPR
[12] = Volume of distribution in mouse; type: ADME, organism-based; settings: in vivo, read-out: Vss
[13] = Half life in mouse; type: ADME, organism-based; settings: in vivo
[14] = target: T3, Sodium- and chloride-dependent glycine transporter 1 (Homo sapiens) (UniProt P48067); experiment: as §1
T3 sequence (whole entry): T1 sequence (P48067 whole entry)

[15] = target: T4, Sodium- and chloride-dependent glycine transporter 2 (Homo sapiens) (UniProt Q9Y345); experiment: as §2
T4 sequence (whole entry): T2 sequence (Q9Y345 whole entry)

SMILES: O=C1NCC(c2ccccc2)C12CCN(C1(c3ccccc3)CCOCC1)CC2 (stereo not given)
- pKa [1]: 7.71

SMILES: O=C1NCC(c2ccccc2)C12CCN(C1(c3ccccc3)CCCOC1)CC2 (stereo not given)
- EC50 [2]: 1.42 µM
- pKa [1]: 7.1
- IC50 [3]: > 11 µM

SMILES: O=C1NCN(c2ccccc2)C12CCN(C1(c3ccccc3)CCCCC1)CC2
- Fh (in vitro [4]): 16%
- microsomal CLint (in vitro [5]): 470 µL/min/mg
- Fh (in vitro [6]): 6%
- EC50 [7]: > 30 µM
- microsomal CLint (in vitro [8]): 82 µL/min/mg

SMILES: O=C1NCC(c2ccc(F)cc2)C12CCN(C1(c3ccc(F)cc3)CCCCC1)CC2 (stereo in doubt)
- Fh (in vitro [4]): 84%
- bioavailability [9]: 60%
- clearance [10]: 35 mL/min/kg
- Kp [11]: 3
- Fh (in vitro [6]): 98%
- Vd [12]: 7.6 L/kg
- pKa [1]: 8.75
- half-life [13]: 2.8 h
- EC50 [7]: > 30 µM

SMILES: O=C1NCC(c2ccc(F)cc2)C12CCN(C1(c3ccc(F)cc3)CCCCCC1)CC2 (stereo not given)
- Activity [14]: 245 nM
- Activity [15]: > 30 µM
